Data published in patent US6884415B2, “Antioxidation food product, antioxidation preparation and antioxidation method” (Otsuka Pharmaceutical Co., Ltd., priority 1993, dated 2005).

Biological target: T1, MPO (myeloperoxidase) (Homo sapiens, UniProt P05164)
T1 sequence (P05164 49-745): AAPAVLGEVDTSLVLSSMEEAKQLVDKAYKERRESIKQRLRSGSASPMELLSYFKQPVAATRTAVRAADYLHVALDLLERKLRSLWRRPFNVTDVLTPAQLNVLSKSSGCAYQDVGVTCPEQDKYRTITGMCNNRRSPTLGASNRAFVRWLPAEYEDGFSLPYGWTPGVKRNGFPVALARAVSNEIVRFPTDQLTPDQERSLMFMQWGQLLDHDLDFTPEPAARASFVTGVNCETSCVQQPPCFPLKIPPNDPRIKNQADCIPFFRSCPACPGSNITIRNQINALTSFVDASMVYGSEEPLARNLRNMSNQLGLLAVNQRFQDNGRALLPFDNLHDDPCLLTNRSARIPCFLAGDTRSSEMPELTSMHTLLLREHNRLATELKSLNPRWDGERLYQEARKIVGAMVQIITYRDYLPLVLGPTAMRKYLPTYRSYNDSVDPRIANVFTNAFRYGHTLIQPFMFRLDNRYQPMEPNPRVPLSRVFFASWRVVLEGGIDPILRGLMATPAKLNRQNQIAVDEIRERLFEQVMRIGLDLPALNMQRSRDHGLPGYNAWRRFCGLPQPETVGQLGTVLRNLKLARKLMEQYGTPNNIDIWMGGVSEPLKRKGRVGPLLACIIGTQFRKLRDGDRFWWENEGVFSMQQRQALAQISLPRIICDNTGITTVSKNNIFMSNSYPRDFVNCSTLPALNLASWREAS
Experiment: MPO (myeloperoxidase) activity inhibition
Format: biochemical
Details: MPO purified enzyme, pH 5.4, 25° C.
Protocol: To 2.9 ml of a 50 mM phosphate buffer (pH: 5.4) containing 0.1% hydrogen peroxide and 1.03 mM o-dianisidine, 50 μl of a test solution and 50 μl of a MPO purified enzyme (1.24 units/ml) were added and, after incubating in a cuvet at 25° C., measuring a change in absorbance (λ: 450 nm) was measured for 5 minutes. As a blank, 50 μl of a 50 mM phosphate buffer (pH: 5.4) was used.
As the test solution, a tea extract solution obtained by extracting a green tea with hot water and a solution obtained by measuring the concentration of Mn in the tea extract solution and adding MnCl2 in an APT broth so that the concentration of Mn in the medium may be the same as that of the tea extract solution were used. Then, […]
Therefore, it was examined whether the component contained in the tea other than Mn is connected with the MPO activity inhibition or not. That is, according to the same manner as that described above, the MPO inhibition activity was examined using a purified catechin as the component other than Mn.

For catechin, the “concentration at which the MPO inhibition effect is exhibited” value was no less than 1.5 µg/mL.
